Test results reported in ChEMBL document CHEMBL4184185, “Dihydrobenzisoxazole-4-one compounds are novel selective inhibitors of aldosterone synthase (CYP11B2) with in vivo activity” (Bioorg Med Chem Lett, 2018).
Calls of active or inactive are those of the source. No cut-off for these calls is given here.

Key:
[1] = Inhibition of cynomolgus monkey adrenal mitochondrial CYP11B2 using corticosterone as substrate after 60 mins in presence of NADPH by mass spectrometric analysis
[2] = target: T1, Cytochrome P450 11B2, mitochondrial (Homo sapiens, UniProt P19099); test: Inhibition of recombinant human CYP11B2 expressed in Chinese hamster V79MZ cells assessed as reduction in aldosterone production at 20 uM by mass spectrometric method; format: cell-based
T1 sequence (P19099 whole entry): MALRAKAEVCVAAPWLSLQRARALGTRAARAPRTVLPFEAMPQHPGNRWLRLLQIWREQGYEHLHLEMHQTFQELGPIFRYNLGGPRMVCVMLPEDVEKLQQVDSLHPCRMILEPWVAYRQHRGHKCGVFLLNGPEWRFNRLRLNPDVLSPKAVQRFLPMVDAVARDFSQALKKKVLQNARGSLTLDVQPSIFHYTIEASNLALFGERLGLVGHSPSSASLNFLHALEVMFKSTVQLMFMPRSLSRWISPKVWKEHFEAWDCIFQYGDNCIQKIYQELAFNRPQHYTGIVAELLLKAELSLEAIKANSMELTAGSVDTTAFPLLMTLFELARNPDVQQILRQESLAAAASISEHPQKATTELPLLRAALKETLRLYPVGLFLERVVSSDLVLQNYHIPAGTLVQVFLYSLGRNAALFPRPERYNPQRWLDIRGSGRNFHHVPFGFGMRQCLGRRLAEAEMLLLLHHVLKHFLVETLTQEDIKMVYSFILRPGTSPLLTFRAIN

Macaca fascicularis [3] = species: Macaca fascicularis; test: Selectivity index, ratio of IC50 for cynomolgus monkey adrenal mitochondrial CYP11B1 to IC50 for cynomolgus monkey adrenal mitochondrial CYP11B2
[4] = Clearance in human liver microsomes relative to hepatic blood flow; format: ADME, microsome; conditions: read-out: CLH
[5] = Clearance in human hepatocytes relative to hepatic blood flow; format: ADME, cell-based, Hepatocyte; conditions: read-out: CLH
[6] = Inhibition of cynomolgus monkey adrenal mitochondrial CYP11B1 using 11-deoxycortisol as substrate after 90 mins in presence of NADPH by mass spectrometric analysis
[7] = target: T2, Steroid 17-alpha-hydroxylase/17,20 lyase (Homo sapiens, UniProt P05093); test: Inhibition of CYP17A1 (unknown origin); format: ADME
T2 sequence (P05093 whole entry): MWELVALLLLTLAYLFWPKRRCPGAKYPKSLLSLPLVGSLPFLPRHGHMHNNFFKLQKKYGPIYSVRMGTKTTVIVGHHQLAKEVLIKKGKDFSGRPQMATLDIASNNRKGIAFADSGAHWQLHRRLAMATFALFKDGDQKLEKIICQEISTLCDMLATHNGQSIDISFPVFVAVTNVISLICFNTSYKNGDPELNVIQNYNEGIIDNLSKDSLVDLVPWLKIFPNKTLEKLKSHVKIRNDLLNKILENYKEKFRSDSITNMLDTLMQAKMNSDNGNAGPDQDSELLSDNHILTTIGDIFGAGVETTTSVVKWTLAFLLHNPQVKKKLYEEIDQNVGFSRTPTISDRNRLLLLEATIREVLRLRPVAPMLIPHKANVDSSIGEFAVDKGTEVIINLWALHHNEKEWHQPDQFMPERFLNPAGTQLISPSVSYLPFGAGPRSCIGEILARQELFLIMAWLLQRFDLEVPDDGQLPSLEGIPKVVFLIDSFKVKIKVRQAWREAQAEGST

Macaca fascicularis [8] = species: Macaca fascicularis; test: Inhibition of cynomolgus monkey adrenal mitochondrial CYP11B2 at 1 uM using corticosterone as substrate after 60 mins in presence of NADPH by mass spectrometric analysis
Cytochrome P450 2D6 = Cytochrome P450 2D6 (Homo sapiens, UniProt P10635); test: Inhibition of CYP2D6 (unknown origin) at 30 uM; format: ADME
Sequence of Cytochrome P450 2D6 (P10635 whole entry): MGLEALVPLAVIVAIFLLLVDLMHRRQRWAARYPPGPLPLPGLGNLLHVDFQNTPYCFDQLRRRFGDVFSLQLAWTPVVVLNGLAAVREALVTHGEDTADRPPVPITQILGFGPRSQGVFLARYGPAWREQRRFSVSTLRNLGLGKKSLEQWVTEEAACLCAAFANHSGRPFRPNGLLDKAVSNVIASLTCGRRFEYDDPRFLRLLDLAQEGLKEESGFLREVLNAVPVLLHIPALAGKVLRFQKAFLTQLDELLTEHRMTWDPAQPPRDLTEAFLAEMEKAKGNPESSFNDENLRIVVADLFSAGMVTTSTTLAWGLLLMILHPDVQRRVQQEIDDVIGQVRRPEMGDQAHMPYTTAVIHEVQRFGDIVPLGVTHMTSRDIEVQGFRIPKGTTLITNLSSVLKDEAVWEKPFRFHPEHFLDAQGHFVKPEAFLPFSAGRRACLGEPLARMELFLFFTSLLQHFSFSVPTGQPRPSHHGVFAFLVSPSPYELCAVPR

[9] = Clearance in Wistar Han rat hepatocytes relative to hepatic blood flow; format: ADME, cell-based, Hepatocyte; conditions: read-out: CLH
Cytochrome P450 2C9 = Cytochrome P450 2C9 (Homo sapiens, UniProt P11712); test: Inhibition of CYP2C9 (unknown origin) at 30 uM; format: ADME
Sequence of Cytochrome P450 2C9 (P11712 whole entry): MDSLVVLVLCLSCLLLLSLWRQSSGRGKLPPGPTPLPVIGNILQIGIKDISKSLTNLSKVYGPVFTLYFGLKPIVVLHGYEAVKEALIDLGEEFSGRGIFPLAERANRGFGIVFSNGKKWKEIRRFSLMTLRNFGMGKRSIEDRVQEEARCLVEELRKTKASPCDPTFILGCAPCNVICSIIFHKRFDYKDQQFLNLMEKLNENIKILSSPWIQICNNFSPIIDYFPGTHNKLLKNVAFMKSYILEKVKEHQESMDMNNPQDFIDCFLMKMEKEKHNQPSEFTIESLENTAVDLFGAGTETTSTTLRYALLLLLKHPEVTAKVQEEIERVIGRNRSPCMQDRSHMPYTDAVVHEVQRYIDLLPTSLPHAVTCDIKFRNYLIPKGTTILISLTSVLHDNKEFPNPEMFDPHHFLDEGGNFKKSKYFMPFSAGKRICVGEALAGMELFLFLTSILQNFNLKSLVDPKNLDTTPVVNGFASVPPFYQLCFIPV

Cynomolgus monkey = test: Clearance in iv dosed cynomolgus monkey relative to hepatic blood flow; format: ADME, organism-based, Macaca fascicularis; conditions: in vivo
Aromatase [10] = target: T3, Aromatase (Homo sapiens, UniProt P11511); test: Inhibition of CYP19A1 (unknown origin)
T3 sequence (P11511 whole entry): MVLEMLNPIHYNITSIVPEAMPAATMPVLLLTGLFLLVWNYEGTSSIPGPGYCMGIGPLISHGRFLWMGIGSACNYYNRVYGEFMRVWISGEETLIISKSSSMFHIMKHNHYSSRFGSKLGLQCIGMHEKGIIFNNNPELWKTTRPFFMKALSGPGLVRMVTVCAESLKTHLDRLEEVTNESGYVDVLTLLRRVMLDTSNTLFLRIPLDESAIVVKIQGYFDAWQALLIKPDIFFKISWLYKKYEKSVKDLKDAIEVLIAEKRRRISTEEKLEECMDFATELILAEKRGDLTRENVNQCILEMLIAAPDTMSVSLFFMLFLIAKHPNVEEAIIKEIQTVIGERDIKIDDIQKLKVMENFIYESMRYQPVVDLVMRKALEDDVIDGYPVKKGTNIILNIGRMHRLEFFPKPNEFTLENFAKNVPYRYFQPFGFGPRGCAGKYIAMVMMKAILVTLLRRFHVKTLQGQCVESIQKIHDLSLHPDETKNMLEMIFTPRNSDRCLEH

[11] = Drug metabolism in human hepatocytes assessed as parent compound remaining at 10 uM after 30 mins by LC-MS/MS analysis; format: ADME, cell-based, Hepatocyte; conditions: read-out: Stability
Aromatase [12] = target: T3, Aromatase; test: Inhibition of CYP19A1 (unknown origin) at 20 uM
[13] = Clearance in cynomolgus monkey hepatocytes relative to hepatic blood flow; format: ADME, cell-based, Macaca fascicularis, Hepatocyte; conditions: read-out: CLH
Cytochrome P450 3A4 = Cytochrome P450 3A4 (Homo sapiens, UniProt P08684); test: Inhibition of CYP3A4 (unknown origin) at 30 uM; format: ADME
Sequence of Cytochrome P450 3A4 (P08684 whole entry): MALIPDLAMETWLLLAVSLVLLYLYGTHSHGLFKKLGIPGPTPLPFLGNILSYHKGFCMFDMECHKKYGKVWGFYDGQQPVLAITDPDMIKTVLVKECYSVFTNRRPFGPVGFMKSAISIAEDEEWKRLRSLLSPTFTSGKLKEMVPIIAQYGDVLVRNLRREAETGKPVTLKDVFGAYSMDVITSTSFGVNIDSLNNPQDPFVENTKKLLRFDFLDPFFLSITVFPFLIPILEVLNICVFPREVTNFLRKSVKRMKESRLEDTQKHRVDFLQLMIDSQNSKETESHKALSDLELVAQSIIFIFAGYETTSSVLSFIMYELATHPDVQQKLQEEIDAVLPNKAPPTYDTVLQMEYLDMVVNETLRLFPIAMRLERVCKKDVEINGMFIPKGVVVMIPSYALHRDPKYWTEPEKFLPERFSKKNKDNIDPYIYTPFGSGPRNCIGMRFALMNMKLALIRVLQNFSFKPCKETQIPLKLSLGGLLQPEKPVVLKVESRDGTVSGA

Rattus norvegicus = test: Clearance in iv dosed Wistar Han rat relative to hepatic blood flow; format: ADME, organism-based; conditions: in vivo
[14] = Oral bioavailability in Wistar Han rat; format: ADME, organism-based; conditions: in vivo
Canis familiaris = test: Clearance in iv dosed Beagle dog relative to hepatic blood flow; format: ADME, organism-based, Canis lupus familiaris; conditions: in vivo
[15] = Oral bioavailability in Beagle dog; format: ADME, organism-based, Canis lupus familiaris; conditions: in vivo
[16] = Clearance in Beagle dog hepatocytes relative to hepatic blood flow; format: ADME, cell-based, Canis lupus familiaris, Hepatocyte; conditions: read-out: CLH
[17] = target: T2, Steroid 17-alpha-hydroxylase/17,20 lyase; test: Inhibition of CYP17A1 (unknown origin) at 20 uM; format: ADME
[18] = target: T1, Cytochrome P450 11B2, mitochondrial; test: Inhibition of recombinant human CYP11B2 expressed in Chinese hamster V79MZ cells assessed as reduction in aldosterone production by mass spectrometric method; format: cell-based
[19] = target: T1, Cytochrome P450 11B2, mitochondrial; test: Inhibition of recombinant human CYP11B2 expressed in Chinese hamster V79MZ cells assessed as reduction in aldosterone production at 1 uM by mass spectrometric method; format: cell-based
[20] = Drug metabolism in human hepatocytes assessed as 3-Amino-2-[2-(4-fluoro-phenyl)-acetyl]-5,5-dimethyl-cyclohex-2-enone metabolite formation at 10 uM after 30 mins by HPLC analysis; format: ADME, cell-based, Hepatocyte; conditions: 0.5 h
[21] = Drug metabolism in human hepatocytes assessed as 3-(4-fluorobenzyl)-6,6-dimethyl-4,5,6,7-tetrahydrobenzo[c]isoxazol-4-ol formation at 10 uM after 30 mins by LC-MS/MS analysis; format: ADME, cell-based, Hepatocyte; conditions: 0.5 h
[22] = Drug metabolism in human hepatocytes at 10 uM after 30 mins by LC-MS/MS analysis; format: ADME, cell-based, Hepatocyte; conditions: read-out: Drug metabolism
[23] = Drug metabolism in human hepatocytes assessed as 3-Amino-2-[2-(4-fluoro-phenyl)-acetyl]-5,5-dimethyl-cyclohex-2-enone metabolite formation at 10 uM after 30 mins by LC-MS/MS analysis; format: ADME, cell-based, Hepatocyte; conditions: 0.5 h

| SMILES | pIC50 [1] | Ratio IC50 (Macaca fascicularis [3]) | hepatic extraction ratio [4] | pIC50 [6] | further results |
| --- | --- | --- | --- | --- | --- |
| Clc1ccc(-c2ccn[nH]2)cc1Cl | 5.3 | – | – | – | inhibition (INH) [2]: Not Active |
| CC1(C)CC(=O)c2c(noc2Cc2ccc(S(C)(=O)=O)cc2)C1 | 7.1 | 42 | < 0.24 | 5.4 | hepatic extraction ratio [5]: 0.59; IC50 [7]: > 31.6 µM |
| CC1(C)Cc2noc(Cc3ccc(F)cc3)c2C(O)C1 (centres undefined) | – | – | – | – | inhibition (Macaca fascicularis [8]): inactive |
| CC1(C)CC(=O)c2c(noc2Cc2ccc(C(N)=O)cc2)C1 | 7 | 150 | 0.33 | 4.8 | inhibition (INH) (Cytochrome P450 2D6): Not Active; hepatic extraction ratio [9]: 0.6; inhibition (INH) (Cytochrome P450 2C9): Not Active; CL (Cynomolgus monkey): 57%; hepatic extraction ratio [5]: 0.33; IC50 (Aromatase [10]): > 20 µM; remaining at 0.5 h, 10 µM [11]: 55%; inhibition (INH) (Aromatase [12]): Not Active; hepatic extraction ratio [13]: 0.22; inhibition (INH) (Cytochrome P450 3A4): Not Active; CL (Rattus norvegicus): 62%; bioavailability [14]: 8% |
| CC1(C)CCc2c(noc2Cc2ccc(C#N)cc2)C1 | 6.8 | 17 | 0.37 | 5.5 | – |
| CC1(C)CC(=O)C(C(=O)Cc2ccc(F)cc2)=C(N)C1 | – | – | – | – | inhibition (Macaca fascicularis [8]): inactive |
| CC1(C)CC(=O)c2c(noc2-c2ccccc2)C1 | < 6 | < 53 | 0.85 | 4.3 | IC50 [7]: > 31.6 µM |
| Clc1ccc(-n2ccnc2)cc1Cl | 7.2 | – | – | – | inhibition (INH) [2]: Not Active |
| CC1CC(=O)c2c(noc2Cc2ccc(C#N)cc2)C1 (centres undefined) | 6.7 | 39 | 0.38 | 5.1 | – |
| CC1(C)CC(=O)c2c(ncn2Cc2ccccc2)C1 | 7 | – | – | – | – |
| CC1(C)CC(=O)c2c(noc2Cc2ccc(C(=O)N3CC[C@@H](O)C3)cc2)C1 | 7 | 160 | < 0.24 | 5 | CL (Canis familiaris): 35%; inhibition (INH) (Cytochrome P450 2D6): Not Active; bioavailability [15]: 85%; hepatic extraction ratio [9]: 0.52; inhibition (INH) (Cytochrome P450 2C9): Not Active; CL (Cynomolgus monkey): 75%; hepatic extraction ratio [5]: < 0.24; IC50 (Aromatase [10]): > 20 µM; remaining at 0.5 h, 10 µM [11]: 98%; hepatic extraction ratio [16]: < 0.3; inhibition (INH) (Aromatase [12]): Not Active; hepatic extraction ratio [13]: 0.28; inhibition (INH) (Cytochrome P450 3A4): Not Active; CL (Rattus norvegicus): 31%; bioavailability [14]: 11% |
| COc1ccc(Cc2onc3c2C(=O)CC(C)(C)C3)cc1 | 7.8 | 95 | 0.86 | 5.8 | IC50 (Aromatase [10]): > 31.6 µM; IC50 [7]: > 31.6 µM |
| CC1(C)CC(=O)c2c(noc2Cc2ccccc2)C1 | 7.1 | 100 | 0.64 | 5.1 | inhibition (INH) (Cytochrome P450 2D6): Not Active; inhibition (INH) (Cytochrome P450 2C9): Not Active; IC50 [1]: 0.079 µM; IC50 (Aromatase [10]): > 31.6 µM; inhibition (INH) [17]: Not Active; inhibition (INH) (Aromatase [12]): Not Active; inhibition (INH) [18]: Active; inhibition (INH) (Cytochrome P450 3A4): Not Active; IC50 [7]: > 31.6 µM |
| O=C1CCCc2noc(Cc3ccccc3)c21 | 6.1 | 32 | 0.73 | 4.6 | – |
| CN1C(=O)CCc2cc(-c3cccnc3)ccc21 | 8.4 | 230 | – | 6 | IC50 (Aromatase [10]): 0.1 µM; IC50 [7]: 0.316 µM |
| CC1(C)CC(=O)c2c(n[nH]c2Cc2ccc(C#N)cc2)C1 | < 6 | – | – | – | inhibition at 1 µM [19]: 54% |
| N#Cc1ccc(Cc2onc3c2C(=O)CC(C2CC2)C3)cc1 (centres undefined) | 6.8 | 15 | 0.83 | 5.6 | – |
| CC1CC(=O)c2c(noc2Cc2ccccc2)C1 (centres undefined) | 7.6 | 130 | 0.73 | 5.5 | – |
| CN1CCN(C(=O)c2ccc(Cc3onc4c3C(=O)CC(C)(C)C4)cc2)CC1=O | 6.8 | 64 | < 0.24 | 5 | inhibition (INH) (Cytochrome P450 2D6): Not Active; inhibition (INH) (Cytochrome P450 2C9): Not Active; hepatic extraction ratio [5]: 0.41; IC50 (Aromatase [10]): > 31.6 µM; inhibition (INH) (Aromatase [12]): Not Active; inhibition (INH) (Cytochrome P450 3A4): Not Active |
| Clc1ccc(-c2ccno2)cc1Cl | < 4.7 | – | – | – | inhibition (INH) [2]: Not Active |
| CC1(C)CC(=O)c2c(noc2Cc2ccc(C#N)cc2)C1 | 7.1 | 940 | 0.55 | 4.1 | inhibition (INH) [18]: Active |
| N#Cc1ccc([C@H]2CCc3cncn32)c(F)c1 [OSILODROSTAT] | 7.7 | – | – | 7.4 | IC50 [7]: 3.98 µM |
| CC1(C)CC(=O)c2c(noc2Cc2ccc(F)cc2)C1 | 6.8 | 130 | < 0.24 | 4.7 | Drug metabolism [20]: Metabolite_Detected; hepatic extraction ratio [5]: 0.91; remaining at 0.5 h, 10 µM [11]: 28%; Drug metabolism [21]: Metabolite_Detected; metabolised at 0.5 h, 10 µM [22]: 72%; Drug metabolism [23]: Metabolite_Detected |
